Laboratory results reported in article PMC6769532 (International Journal of Molecular Sciences, 2019).

T1: Riboflavin transporter 2 (RFVT2) (Homo sapiens, UniProt Q9HAB3)
T1 construct: gene SLC52A2; hRFVT2 carrying an N-terminal 6-Histidine tag
T1 sequence (Q9HAB3 1-445): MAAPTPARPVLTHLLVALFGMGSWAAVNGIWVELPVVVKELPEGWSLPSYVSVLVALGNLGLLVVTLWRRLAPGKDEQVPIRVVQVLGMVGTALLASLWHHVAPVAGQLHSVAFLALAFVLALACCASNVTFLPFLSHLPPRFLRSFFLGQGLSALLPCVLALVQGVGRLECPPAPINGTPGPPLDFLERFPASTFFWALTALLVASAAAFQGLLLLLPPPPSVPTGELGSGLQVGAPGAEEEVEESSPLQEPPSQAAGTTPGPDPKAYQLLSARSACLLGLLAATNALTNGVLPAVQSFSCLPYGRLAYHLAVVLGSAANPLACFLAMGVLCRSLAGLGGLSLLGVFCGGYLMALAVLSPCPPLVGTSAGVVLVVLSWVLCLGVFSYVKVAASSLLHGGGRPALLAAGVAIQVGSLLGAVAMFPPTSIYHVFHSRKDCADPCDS


Legend:
[1] = molecular target: T1, Riboflavin transporter 2 (RFVT2); assay: inhibition of [3H]riboflavin uptake in proteoliposomes with purified recombinant RFVT2, dose-response; assay type: biochemical
[2] = substrate: Cc1cc2nc3c(=O)[nH]c(=O)nc-3n(C[C@H](O)[C@H](O)[C@H](O)CO)c2cc1C; assay: purified protein

| Molecule | IC50 [1] | Km [2] |
| --- | --- | --- |
| Cc1cc2nc3c(=O)[nH]c(=O)nc-3n(C[C@H](O)[C@H](O)[C@H](O)COP(=O)(O)O)c2cc1C [FMN] | 3.3 ± 0.8 µM |  |
| Riboflavin transporter 2 (RFVT2) (Homo sapiens) (protein) MAAPTPARPVLTHLLVALFGMGSWAAVNGIWVELPVVVKELPEGWSLPSYVSVLVALGNLGLLVVTLWRRLAPGKDEQVPIRVVQVLGMVGTALLASLWHHVAPVAGQLHSVAFLALAFVLALACCASNVTFLPFLSHLPPRFLRSFFLGQGLSALLPCVLALVQGVGRLECPPAPINGTPGPPLDFLERFPASTFFWALTALLVASAAAFQGLLLLLPPPPSVPTGELGSGLQVGAPGAEEEVEESSPLQEPPSQAAGTTPGPDPKAYQLLSARSACLLGLLAATNALTNGVLPAVQSFSCLPYGRLAYHLAVVLGSAANPLACFLAMGVLCRSLAGLGGLSLLGVFCGGYLMALAVLSPCPPLVGTSAGVVLVVLSWVLCLGVFSYVKVAASSLLHGGGRPALLAAGVAIQVGSLLGAVAMFPPTSIYHVFHSRKDCADPCDS |  | 0.26 ± 0.07 µM |
